{
  "source": "patent US20250144036A1",
  "about": "“COMPOUNDS AND COMPOSITIONS FOR DELIVERY OF THERAPEUTIC AGENTS” (ModernaTX, Inc., priority 2021, published 2025)",
  "key": {"[1]": {"system": "endothelial cells", "experiment": "Expression of mOX40L in endothelial cells following intravenous administration of loaded LNPs (flow cytometry of lung cells)", "assay_type": "in vivo, mice (Ail4)", "settings": "ionizable lipid/PEG lipid VI-4/PEG-DMG, 30 mol % cationic lipid or none, i.v., 24 h after dose", "procedure": "(§1) Reagents: Digestion Media: 3 mg/mL collagenase 1, 0.1 mg/mL DNase I, Dulbecco's Modified Eagle Medium (DMEM); Wash solution: Dulbecco's phosphate-buffered saline (DPBS)+0.5% Bovine Serum Albumin (BSA); FACS Buffer: Flow Cytometry Staining Buffer (eBioscience™, ThermoFisher Scientific).\n(§2) • CD31: General Endothelial Marker; • CD45: Leukocyte Common Marker; • mOX40L: Transmembrane Reporter; • tdTomato: Fluorescence Protein Reporter from Cre-mediated recombination in Ail4 mice.\n(§3) Six-week-old female mice (Ail4) were aged in-house to approximately 7-8 weeks of age. With an n=5 per group, Cre mRNA (i.e., mRNA leading to expression of tdTomato) formulated LNPs were intravenously dosed via the lateral tail vein 8 days before harvest. […] Collected data was analyzed using flow cytometry analysis software (FlowJo™).\n(§4) To assess the delivery of a therapeutic agent comprised in loaded LNPs of the disclosure to endothelial cells, the expression of Cre and mOX40L mRNA encapsulated in loaded LNPs of the disclosure was measured in endothelial cells following administration of the loaded LNPs to Ail4 mice as described in Example 3. […] The expression was evaluated in LNPs comprising 30 mol % of a cationic lipid of Formula (I) and in loaded LNPs not comprising the cationic of Formula (I) (i.e., LNPs not comprising a cationic lipid, or LNPs comprising dioleoyl-3-trimethylammonium propane (DOTAP))."}, "[2]": {"system": "endothelial cells", "experiment": "Expression of tdTomato (Cre mRNA) in endothelial cells following intravenous administration of loaded LNPs (flow cytometry of lung cells)", "assay_type": "in vivo, mice (Ail4)", "settings": "ionizable lipid/PEG lipid VI-4/PEG-DMG, 30 mol % cationic lipid or none, i.v., 8 days before harvest", "procedure": "as §1, §2, §3, §4"}},
  "data": [
    {"smiles": "CCCCCCCC/C=C\\CCCCCCCC(=O)OCC(C[N+](C)(C)C)OC(=O)CCCCCCC/C=C\\CCCCCCCC", "note": "(centres unmarked) [DOTAP, dioleoyl-3-trimethylammonium propane]", "values": [
      {"measurement": "% Endothelial cells Average", "setting": "[1]", "result": 0, "unit": "%"},
      {"measurement": "% Endothelial cells Average", "setting": "[2]", "result": 0, "unit": "%"}
    ]}
  ]
}
